Tests used:
DLD1 NRF2-WT [1] = assay: drug sensitivity score (DSS) cytotoxicity (DSS score); higher = more toxic; extreme values may be limits of the assay; details: 72 h; CellTox Green cytotoxicity
Summary of the method: (§1)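 After growth in DMEM with 10% FBS, NRF2 wild-type and CRISPR-edited isogenic DLD1 cells were seeded in 384-well plates and given library compounds at 5 concentrations across a 10,000-fold range. Fluorescence from CellTox Green was taken on a Pherastar FS reader after 72 h and normalised against vehicle wells and 100-μM positive-control wells. From logistic dose-response fits of cytotoxicity came the TC50 and the drug sensitivity score, a normalised area under the curve.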

DLD1 NRF2-GOF [2] = assay: as above; details: 72 h; CellTox Green cytotoxicity
Summary of the method: as §1

DLD1 NRF2-WT [3] = details: 72 h; CellTiter-Glo viability
Summary of the method: (§2)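 Cells grown in DMEM with 10% FBS were isogenic DLD1 colorectal cancer lines, NRF2 wild-type or CRISPR gain-of-function. In 384-well plates they received library compounds at 5 concentrations over a 10,000-fold range for 72 h before CellTiter-Glo readout on a Pherastar FS reader, normalised to vehicle wells and 100-μM positive-control wells. Dose-response fits used a four-parameter logistic model, from which EC50 and drug sensitivity score, a normalised area under the curve, were obtained.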

DLD1 NRF2-GOF [4] = details: 72 h; CellTiter-Glo viability
Summary of the method: as §2

DLD1 NRF2-WT [5] = assay: drug sensitivity score (DSS) viability (DSS score); higher = more sensitive; extreme values may be limits of the assay; details: 72 h; CellTiter-Glo viability
Summary of the method: as §2

DLD1 NRF2-GOF [6] = assay: as above; details: 72 h; CellTiter-Glo viability
Summary of the method: as §2

DLD1 NRF2-WT [7] = assay: TC50 cytotoxicity; higher = less toxic; details: 72 h; CellTox Green cytotoxicity
Summary of the method: as §1

DLD1 NRF2-GOF [8] = assay: TC50 cytotoxicity; higher = less toxic; details: 72 h; CellTox Green cytotoxicity
Summary of the method: as §1

SMILES	drug sensitivity score (DLD1 NRF2-WT [1])	drug sensitivity score (DLD1 NRF2-GOF [2])	EC50 viability (DLD1 NRF2-WT [3]) [µM]	EC50 viability (DLD1 NRF2-GOF [4]) [µM]	drug sensitivity score (DLD1 NRF2-WT [5])	drug sensitivity score (DLD1 NRF2-GOF [6])	TC50 cytotoxicity (DLD1 NRF2-WT [7]) [µM]	TC50 cytotoxicity (DLD1 NRF2-GOF [8]) [µM]
CNC(=O)c1ccc(N2C(=S)N(c3ccc(C#N)c(C(F)(F)F)c3)C(=O)C2(C)C)cc1F [Enzalutamide]	0	0	> 10	> 10	0.5	0.1	> 10	> 10
O=C(Nc1ccncc1)C(=O)c1cn(Cc2ccc(Cl)cc2)c2ccccc12 [Indibulin]	0.4	0	0.283	0.381	8.6	7.8	> 10	> 10
Cc1sc2c(c1C)C(c1ccc(Cl)cc1)=N[C@@H](CC(=O)NCCCCNC(=O)COc1cccc3c1C(=O)N(C1CCC(=O)NC1=O)C3=O)c1nnc(C)n1-2 (stereo not given in full) [dBET1]	0	0	0.62	> 10	6.5	0.7	> 10	> 10
O=C(Nc1cc(Cl)cc2c1[nH]c1cnccc12)c1cccnc1 [PS-1145]	0	0	0.771	1.34	6.2	5.2	> 25	> 25
CO[C@H]1C[C@@H]2CC[C@@H](C)[C@@](O)(O2)C(=O)C(=O)N2CCCC[C@H]2C(=O)O[C@H]([C@H](C)C[C@@H]2CC[C@@H](OC(=O)C(C)(CO)CO)[C@H](OC)C2)CC(=O)[C@H](C)/C=C(\C)[C@@H](O)[C@@H](OC)C(=O)[C@H](C)C[C@H](C)/C=C/C=C/C=C/1C [Temsirolimus]	–	–	> 0.1	> 0.1	4.1	1.3	–	–
COc1cc2nccc(Oc3ccc(NC(=O)C4(C(=O)Nc5ccc(F)cc5)CC4)cc3)c2cc1OC [Cabozantinib]	0	0	> 1	> 1	0	1.1	> 1	> 1
COc1ccc(-c2ccc3c(N4CCOC[C@@H]4C)nc(N4CCOC[C@@H]4C)nc3n2)cc1CO [AZD8055]	0	0	0.0751	0.103	19.1	17.4	> 10	> 10
Cc1sc2c(c1C)C(c1ccc(Cl)cc1)=N[C@@H](CC(=O)OC(C)(C)C)c1nnc(C)n1-2 [JQ1]	0	0	0.272	2.71	8.8	2.6	> 10	> 10
Cc1cc(-c2nc(-c3ccc(OC(F)(F)F)cc3)no2)nn1Cc1ccnc(N2CCN(C3CC3)CC2)c1 [BAY 87-2243]	0	0	0.0009	> 1	16.2	1.7	> 1	> 1
CC[C@@H]1C(=O)OC[C@@H]1Cc1cncn1C [Pilocarpine]	0	0	> 40	> 40	0	0.1	> 40	> 40
c1cn2cc(-c3ccc4cn[nH]c4c3)nc(Nc3ccc(N4CCOCC4)cc3)c2n1 [Entospletinib]	0	0	> 5	> 5	0	0	> 5	> 5
CN1CCN(c2ccc3nc(-c4c(N)c5c(F)cccc5[nH]c4=O)[nH]c3c2)CC1 [Dovitinib]	–	–	> 10	> 10	1.6	0	–	–
Cc1nc(Nc2n[nH]c3c2CN(C(=O)N[C@H](CN(C)C)c2ccccc2)C3(C)C)c2sccc2n1	2.1	1.8	0.021	0.0215	28.2	27.5	–	> 10
Cc1nc(-c2cn3c(n2)-c2ccc(-c4cnn(C(C)(C)C(N)=O)c4)cc2OCC3)n(C(C)C)n1 [Taselisib]	0.4	0	0.0117	> 1	5.5	0.9	> 1	> 1
CC(C)Nc1cc(-c2c[nH]c(C(=O)N[C@H](CO)c3cccc(Cl)c3)c2)c(Cl)cn1 [Ulixertinib]	0	0	1.47	1.14	6.1	6.3	> 10	> 10
COc1cc(OC)c(/C=C/S(=O)(=O)Cc2ccc(OC)c(NCC(=O)O)c2)c(OC)c1 [Rigosertib]	5.9	9.4	0.106	0.107	21	19	–	0.19
CC(C)[C@H](C(=O)Nc1ccc(C(=O)NO)cc1)c1ccccc1 [AR-42]	4	0	1.26	1.73	9.4	5.7	1.97	> 10
CCc1c2c(nc3ccc(O)cc13)-c1cc3c(c(=O)n1C2)COC(=O)[C@]3(O)CC [SN-38]	2.3	2	0.337	0.158	12.7	17.5	1.67	–
CNC(=O)c1ccccc1Nc1nc(Nc2ccc3c(c2OC)CCC[C@H](N2CCN(CCO)CC2)C3)ncc1Cl	3	1.8	0.61	0.45	9.2	9.3	1.21	–
Cc1c2oc3c(C)ccc(C(=O)N[C@@H]4C(=O)N[C@H](C(C)C)C(=O)N5CCC[C@H]5C(=O)N(C)CC(=O)N(C)[C@@H](C(C)C)C(=O)O[C@@H]4C)c3nc-2c(C(=O)N[C@@H]2C(=O)N[C@H](C(C)C)C(=O)N3CCC[C@H]3C(=O)N(C)CC(=O)N(C)[C@@H](C(C)C)C(=O)O[C@@H]2C)c(N)c1=O [Dactinomycin]	1.4	0	0.0067	0.0013	24.8	31.3	–	> 1
Cc1cc(Nc2cc(N3CCN(C)CC3)nc(/C=C/c3ccccc3)n2)n[nH]1 [ENMD-2076]	1.4	4.4	0.576	0.638	11.4	11.3	> 10	–

SMILES	drug sensitivity score (DLD1 NRF2-WT [1])	drug sensitivity score (DLD1 NRF2-GOF [2])	EC50 viability (DLD1 NRF2-WT [3]) [µM]	EC50 viability (DLD1 NRF2-GOF [4]) [µM]	drug sensitivity score (DLD1 NRF2-WT [5])	drug sensitivity score (DLD1 NRF2-GOF [6])	TC50 cytotoxicity (DLD1 NRF2-WT [7]) [µM]	TC50 cytotoxicity (DLD1 NRF2-GOF [8]) [µM]
Cc1ccc(C(=O)N(CCCN)[C@@H](c2oc3cc(Cl)ccc3c(=O)c2Cc2ccccc2)C(C)C)cc1	2.8	1.5	0.0028	0.0031	12.7	13.5	–	> 0.1
COc1cc([C@@H]2c3cc4c(cc3[C@@H](O[C@@H]3O[C@@H]5CO[C@@H](C)O[C@H]5[C@H](O)[C@H]3O)[C@H]3COC(=O)[C@H]23)OCO4)cc(OC)c1O [Etoposide]	2.7	1.8	1.09	0.936	8.5	6.3	–	> 10
Cc1ccc(C(=O)Nc2ccc(CN3CCN(C)CC3)c(C(F)(F)F)c2)cc1C#Cc1cnc2cccnn12 [Ponatinib]	–	–	0.226	0.114	4	6	–	–
CN1C(=O)N[C@H](Cc2c[nH]c3c(Cl)cccc23)C1=O [Necrostatin 2]	–	–	> 10	> 10	0	0	–	–
CO[C@H]1C(=O)[C@]2(C)[C@@H](OC)C[C@H]3OC[C@@]3(OC(C)=O)[C@H]2[C@H](OC(=O)c2ccccc2)[C@]2(O)C[C@H](OC(=O)[C@H](O)[C@@H](NC(=O)OC(C)(C)C)c3ccccc3)C(C)=C1C2(C)C [Cabazitaxel]	6.6	0.3	0.0015	0.0016	27.1	25.7	–	> 1
Cc1cc(Nc2cc(N3CCN(C)CC3)nc(Sc3ccc(NC(=O)C4CC4)cc3)n2)n[nH]1 [Tozasertib]	5.7	11.6	0.155	0.0992	14.2	15.9	–	0.0311
COc1cccc2c1C(=O)c1c(O)c3c(c(O)c1C2=O)C[C@@](O)(C(C)=O)C[C@@H]3O[C@H]1C[C@H](N)[C@H](O)[C@H](C)O1 [Daunorubicin]	–	–	0.156	0.165	8.3	7.2	–	–
CCN(CC)CCOc1ccc(/C(=C(/Cl)c2ccccc2)c2ccccc2)cc1 [Clomifene]	–	–	3.08	1.84	5.4	7.8	–	–
CC1CCC(n2c3cnccc3c3cnc(Nc4ccc5c(n4)CCN(C(=O)CO)C5)nc32)CC1 (stereo not given) [AMG-925]	–	–	0.0997	> 1	3.2	0.5	–	–
CC[C@]12C=CCN3CC[C@@]4(c5cc([C@@]6(C(=O)OC)C[C@@H]7C[C@@H](C(C)(F)F)CN(Cc8c6[nH]c6ccccc86)C7)c(OC)cc5N(C)[C@H]4[C@@](O)(C(=O)OC)[C@@H]1OC(C)=O)[C@@H]32 [Vinflunine]	1.3	1	0.143	0.162	7	6.9	> 1	–
CC[C@]1(O)C[C@H]2CN(CCc3c([nH]c4ccccc34)[C@@](C(=O)OC)(c3cc4c(cc3OC)N(C=O)[C@H]3[C@@](O)(C(=O)OC)[C@H](OC(C)=O)[C@]5(CC)C=CCN6CC[C@]43[C@@H]65)C2)C1 [Vincristine]	6.8	5.5	0.0063	0.0049	22.4	22.8	–	> 1
Cc1sc2c(c1C)C(c1ccc(Cl)cc1)=N[C@@H](CC(=O)Nc1ccc(OCCOCCOCCOCCNc3cccc4c3C(=O)N(C3CCC(=O)NC3=O)C4=O)cc1)c1nnc(C)n1-2 (stereo not given in full) [ARV-825]	4	1.1	0.0129	0.0365	9.1	5	–	> 0.3
COc1ccc(S(=O)(=O)Nc2cccnc2Nc2ccc(O)cc2)cc1 [ABT-751]	2.1	3.6	0.269	0.301	15.3	14.4	–	1.07
CN[C@@H]1C[C@H]2O[C@@](C)([C@@H]1OC)n1c3ccccc3c3c4c(c5c6ccccc6n2c5c31)C(=O)N[C@H]4O [UCN-01]	10.4	5	0.344	0.578	16.4	12.6	0.302	–
Clc1ccc(Nc2nnc(Cc3ccncc3)c3ccccc23)cc1 [Vatalanib]	–	–	> 10	> 10	0	0	–	–
CC(=O)O[C@@]12CO[C@@H]1C[C@H](O)[C@@]1(C)C(=O)[C@H](O)C3=C(C)[C@@H](OC(=O)[C@H](O)[C@@H](NC(=O)OC(C)(C)C)c4ccccc4)C[C@@](O)([C@@H](OC(=O)c4ccccc4)[C@H]21)C3(C)C [Docetaxel]	6.8	6.6	0.0034	0.0021	25.2	26.6	–	–
N.N.[Cl][Pt][Cl] [Cisplatin]	1.4	1.2	27.9	30.6	5.2	4.8	–	–
Cc1[nH]nc(C(F)(F)F)c1Cc1sc2c(c1C(=O)N1C[C@](C)(O)CO1)c(=O)n(C)c(=O)n2C(C)C [AZD3965]	–	–	> 1	0.0926	2.3	3.5	–	–
Cn1cc(-c2[nH]c3cc(NC(=O)[C@H](N)C4CCCCC4)cc4c3c2C=NNC4=O)cn1	1	2.7	0.878	0.812	9	8.8	> 10	–
CC[C@@H]1C(=O)N(C)c2cnc(Nc3ccc(C(=O)N[C@H]4CC[C@H](N5CCN(CC6CC6)CC5)CC4)cc3OC)nc2N1C(C)C [Volasertib]	7	6	0.0051	0.0048	20.7	18.8	–	–
